This is an account of results in patent publication US10160743B2, “Sulphamoylthiophenamide derivatives and the use thereof as medicaments for the treatment of hepatitis B” (Janssen Sciences Ireland UC, priority 2013, dated 2018).

For data set [1], the system named is HBV. Description: Anti-HBV activity, HepG2.117 cell line (Tet-off), intracellular HBV DNA by realtime PCR. The format is cell-based, Hepatitis B virus. The conditions noted are these: Hepatitis B virus, HepG2.117, 72 h, HepG2.117 cells, 3 days of treatment.
The test system of data set [2] is HBV. Description: Anti-HBV activity, HepG2.2.15 cell line, HBV DNA from secreted virions by realtime PCR. The format is cell-based, Hepatitis B virus. The settings on record: Hepatitis B virus, HepG2.2.15, 144 h, HepG2.2.15 cells, 6 days of treatment.
A short description of data set [3]: Cytotoxicity in HepG2 cells, Resazurin assay. Format: cell-based. The conditions noted are these: human, incubated for 4 days, Resazurin viability.

What is called EC50 is the concentration needed to bring the measured effect to its halfway point. Read a low EC50 as a more potent agent. One may read the CC50 as the concentration at which the toxic effect on the cells reaches its halfway point. In the case of `Cc1cc(NC(=O)c2cc(S(=O)(=O)NC(C)(C)C)sc2C)ccc1F` [Compound 25, 5-(tert-Butylsulfamoyl)-N-(4-fluoro-3-methylphenyl)-2-methylthiophene-3-carboxamide], the EC50 in data set [1] turned out to be 0.058 µM; in data set [2], 0.053 µM. The compound further had a CC50 at 4 days in data set [3] above 25 µM.
The matching figures for `Cc1sc(S(=O)(=O)NC(C)(C)C)cc1C(=O)Nc1ccc(F)c(Cl)c1` [Compound 26, 5-(tert-Butylsulfamoyl)-N-(3-chloro-4-fluorophenyl)-2-methylthiophene-3-carboxamide]: 0.051 µM, 0.17 µM and 11.5 µM.
The like results for `Cc1sc(S(=O)(=O)NC(C)(C)C)cc1C(=O)Nc1ccc(F)c(Br)c1` [Compound 27, N-(3-Bromo-4-fluorophenyl)-5-(tert-butylsulfamoyl)-2-methylthiophene-3-carboxamide] were, in that order, 0.09 µM, 0.13 µM and 12.2 µM.
The matching figures for `Cc1sc(S(=O)(=O)NC2(C)COC2)cc1C(=O)Nc1ccc(F)c(Cl)c1` [Compound 28, N-(3-Chloro-4-fluorophenyl)-2-methyl-5-[(3-methyloxetan-3-yl)-sulfamoyl]thiophene-3-carboxamide]: 0.041 µM, 0.034 µM and above 25 µM.
Regarding `Cc1sc(S(=O)(=O)NC2(C)COC2)cc1C(=O)Nc1ccc(F)c(Br)c1` [Compound 29, N-(3-Bromo-4-fluorophenyl)-2-methyl-5-[(3-methyloxetan-3-yl)-sulfamoyl]thiophene-3-carboxamide], the EC50 in data set [1] and in data set [2] was 0.12 µM in each case. The CC50 at 4 days in data set [3] stood at 13.2 µM.
Turning to `COC(=O)C(C)(C)NS(=O)(=O)c1cc(C(=O)Nc2ccc(F)c(F)c2)c(C)s1` [Compound 30, Methyl N-({4-[(3,4-difluorophenyl)carbamoyl]-5-methylthiophen-2-yl}sulfonyl)-2-methylalaninate], the 50% effective concentration (EC50) is 0.79 µM in data set [1] and above 1 µM in data set [2]. In data set [3], this compound registered a CC50 at 4 days above 25 µM.
The like results for `COC(=O)C(C)(C)NS(=O)(=O)c1cc(C(=O)Nc2ccc(F)c(C)c2)c(C)s1` [Compound 31, Methyl N-({4-[(4-fluoro-3-methylphenyl)carbamoyl]-5-methylthiophen-2-yl}sulfonyl)-2-methylalaninate] were, in that order, 0.17 µM, 0.52 µM and above 25 µM.
The matching figures for `Cc1sc(S(=O)(=O)NC(C)(C)C(N)=O)cc1C(=O)Nc1ccc(F)c(F)c1` [Compound 32, 5-[(2-Amino-1,1-dimethyl-2-oxoethyl)sulfamoyl]-N-(3,4-difluorophenyl)-2-methylthiophene-3-carboxamide]: 0.3 µM, 0.22 µM and above 25 µM.
The matching figures for `Cc1cc(NC(=O)c2cc(S(=O)(=O)NC(C)(C)C(N)=O)sc2C)ccc1F` [Compound 33, 5-[(2-Amino-1,1-dimethyl-2-oxoethyl)sulfamoyl]-N-(4-fluoro-3-methylphenyl)-2-methylthiophene-3-carboxamide]: 0.13 µM, 0.14 µM and above 25 µM.
For the compound `Cc1sc(S(=O)(=O)NC2(C(F)(F)F)CC2)cc1C(=O)Nc1ccc(F)c(F)c1` [Compound 34, N-(3,4-Difluorophenyl)-2-methyl-5-{[1-(trifluoromethyl)cyclopropyl]-sulfamoyl}thiophene-3-carboxamide], the half-maximal effective concentration (EC50) was 0.13 µM in data set [1] and 0.1 µM in data set [2]. For the same compound, the CC50 at 4 days in data set [3] amounted to 17.7 µM.
The matching figures for `Cc1cc(NC(=O)c2cc(S(=O)(=O)NC3(C(F)(F)F)CC3)sc2C)ccc1F` [Compound 35, N-(4-Fluoro-3-methylphenyl)-2-methyl-5-{[1-(trifluoromethyl)cyclo-propyl]sulfamoyl}thiophene-3-carboxamide]: 0.04 µM, 0.06 µM and above 25 µM.
As to `Cc1sc(S(=O)(=O)N[C@H](C)C(F)(F)F)cc1C(=O)Nc1cc(F)c(F)c(Cl)c1` [Compound 36, N-(3-Chloro-4,5-difluorophenyl)-2-methyl-5-{[(1R)-2,2,2-trifluoro-1-methylethyl]sulfamoyl}thiophene-3-carboxamide], the half-maximal effective concentration (EC50) was 0.16 µM in data set [1] and 0.14 µM in data set [2]. In addition, the CC50 at 4 days in data set [3] amounted to 7.1 µM.
The like results for `Cc1sc(S(=O)(=O)N[C@@H](C)C(F)(F)F)cc1C(=O)Nc1cc(F)c(F)c(Cl)c1` [Compound 37, N-(3-Chloro-4,5-difluorophenyl)-2-methyl-5-{[(1S)-2,2,2-trifluoro-1-methylethyl]sulfamoyl}thiophene-3-carboxamide] were, in that order, 0.22 µM, 0.16 µM and 8.2 µM.
The like results for `Cc1sc(S(=O)(=O)N[C@H](C)C(F)(F)F)cc1C(=O)Nc1ccc(F)c(Cl)c1` [Compound 38, N-(3-Chloro-4-fluorophenyl)-2-methyl-5-{[(1R)-2,2,2-trifluoro-1-methylethyl]sulfamoyl}thiophene-3-carboxamide] were, in that order, 0.08 µM, 0.04 µM and 14.4 µM.
The matching figures for `Cc1cc(NC(=O)c2cc(S(=O)(=O)N[C@H](C)C(F)(F)F)sc2C)ccc1F` [Compound 39, N-(4-Fluoro-3-methylphenyl)-2-methyl-5-{[(1R)-2,2,2-trifluoro-1-methylethyl]sulfamoyl}thiophene-3-carboxamide]: 0.06 µM, 0.07 µM and above 25 µM.
For the compound `Cc1sc(S(=O)(=O)NC(C)(C)C(F)(F)F)cc1C(=O)Nc1cccc(C(F)(F)F)c1` [Compound 42, 2-methyl-5-[(2,2,2-trifluoro-1,1-dimethyl-ethyl)sulfamoyl]-N-[3-(trifluoromethyl)phenyl]thiophene-3-carboxamide], the EC50 in data set [1] was above 1 µM; in data set [2] it was 0.53 µM. In data set [3], this compound displayed a cytotoxic concentration (CC50) at 4 days of 16.9 µM.
The like results for `Cc1sc(S(=O)(=O)NC(CF)CF)cc1C(=O)Nc1ccc(F)c(C#N)c1` [Compound 43, N-(3-cyano-4-fluoro-phenyl)-5-[[2-fluoro-1-(fluoromethyl)ethyl]sulfamoyl]-2-methyl-thiophene-3-carboxamide] were, in that order, 0.67 µM, 0.33 µM and above 25 µM.
Take `Cc1cc(NC(=O)c2cc(S(=O)(=O)NC3(C)COC3)sc2C)cc(C#N)c1F` [Compound 44, N-(3-cyano-4-fluoro-5-methyl-phenyl)-2-methyl-5-[(3-methyloxetan-3-yl)sulfamoyl]thiophene-3-carboxamide]: the EC50 was 0.45 µM in data set [1] and 0.82 µM in data set [2]. This compound came in with a 50% cytotoxic concentration (CC50) at 4 days in data set [3] above 25 µM.
The like results for `Cc1sc(S(=O)(=O)NC(C)(C)C(F)(F)F)cc1C(=O)Nc1ccc(F)c(C#N)c1` [Compound 45, N-(3-cyano-4-fluoro-phenyl)-2-methyl-5-[(2,2,2-trifluoro-1,1-dimethyl-ethyl)sulfamoyl]thiophene-3-carboxamide] were, in that order, 0.42 µM, 0.28 µM and above 25 µM.
The like results for `Cc1sc(S(=O)(=O)N[C@@H](C)C(F)(F)F)cc1C(=O)Nc1ccc(F)c(C#N)c1` [Compound 46, N-(3-cyano-4-fluoro-phenyl)-2-methyl-5-[[(1S)-2,2,2-trifluoro-1-methyl-ethyl]sulfamoyl]thiophene-3-carboxamide] were, in that order, 0.42 µM, 0.4 µM and above 25 µM.
The like results for `Cc1sc(S(=O)(=O)N[C@@H](C)C(C)(F)F)cc1C(=O)Nc1ccc(F)c(F)c1` [Compound 47, 5-[[(1S)-2,2-difluoro-1-methyl-propyl]sulfamoyl]-N-(3,4-difluorophenyl)-2-methyl-thiophene-3-carboxamide] were, in that order, 0.34 µM, 0.16 µM and 14.3 µM.
Turning to `Cc1sc(S(=O)(=O)N[C@H](C)C(F)(F)F)cc1C(=O)Nc1ccc(F)c(Br)c1` [Compound 48, N-(3-bromo-4-fluoro-phenyl)-2-methyl-5-[[(1R)-2,2,2-trifluoro-1-methyl-ethyl]sulfamoyl]thiophene-3-carboxamide], the results for the EC50 in data set [1] and in data set [2] were 0.28 µM and 0.16 µM, respectively. In data set [3], this compound registered a cytotoxic concentration (CC50) at 4 days of 7.73 µM.
The like results for `Cc1sc(S(=O)(=O)NC2(C(F)(F)F)CCOC2)cc1C(=O)Nc1ccc(F)c(F)c1` (stereo not drawn) [Compound 49, N-(3,4-difluorophenyl)-2-methyl-5-[[3-(trifluoromethyl)tetrahydrofuran-3-yl]sulfamoyl]thiophene-3-carboxamide] were, in that order, 0.27 µM, 0.29 µM and above 25 µM.
The like results for `Cc1sc(S(=O)(=O)NC(C)(C)C(F)(F)F)cc1C(=O)Nc1ccc(F)c(F)c1` [Compound 50, N-(3,4-difluorophenyl)-2-methyl-5-[(2,2,2-trifluoro-1,1-dimethyl-ethyl)sulfamoyl]thiophene-3-carboxamide] were, in that order, 0.19 µM, 0.14 µM and above 25 µM.
The like results for `Cc1sc(S(=O)(=O)N[C@H](C)C(F)(F)F)cc1C(=O)Nc1ccc(F)c(C#N)c1` [Compound 51, N-(3-cyano-4-fluoro-phenyl)-2-methyl-5-[[(1R)-2,2,2-trifluoro-1-methyl-ethyl]sulfamoyl]thiophene-3-carboxamide] were, in that order, 0.17 µM, 0.25 µM and above 25 µM.
Turning to `Cc1sc(S(=O)(=O)NC(CF)CF)cc1C(=O)Nc1ccc(F)c(F)c1` [Compound 52, N-(3,4-difluorophenyl)-5-[[2-fluoro-1-(fluoromethyl)ethyl]sulfamoyl]-2-meth thiophene-3-carboxamide], the 50% effective concentration (EC50) in data set [1] and in data set [2] was 0.17 µM each time. For the same compound, in data set [3], the CC50 at 4 days is above 25 µM.
